In patent US11246961B2, “Engineered scaffolds for vascularized tissue repair” (The Regents of the University of California, priority 2016, dated 2022):
Ends that are not written are not given here.

What was measured:
HECFCs = test: on-bead whole cell binding assay, HECFCs; type: cell-based, human; settings: 2 hours incubation
Excerpt: Endothelial colony forming cells (ECFCs), a subtype of EPCs also often referred to as outgrowth endothelial cells (OECs), were isolated from human umbilical cord blood as previously described (Williams et al. (2015) PloS One 10:e0123437; Ingram et al. (2004) Blood 104:2752). Human umbilical cord blood (10 U heparin/mL blood) was obtained from the UC Davis Umbilical Cord Blood Collection Program (UCBCP) and diluted 1:1 with Phosphate-buffered saline (PBS), without calcium and magnesium, pH 7.2 (Hyclone). Fifteen mL Ficoll-Paque PLUS (Amersham Biosciences) was laid at the bottom of 20 mL diluted blood and centrifuged at 2000 rpm for 30 minutes at room temperature. The hazy layer of mononuclear cells (MNCs) that seat at the interface between the Ficoll and serum was collected and dispensed into 50-mL conical tube containing 10 mL EBM-2 (Lonza) and centrifuged at 1500 rpm for 10 minutes at room temperature. The supernatant was carefully aspirated and the pellets were treated with red blood cell lysis buffer (eBioscience, Inc.) and then sorted by CD34 microbead magnetic sorting (Miltenyi Biotec GmbH) as per manufacturer's instructions. The CD34^+ cells were seeded on rat-tail collagen I (BD Biosciences Discovery) coated tissue culture plates and cultured in EGM-2 media (Lonza). After 24 h, non-adherent cells were removed and the media was changed daily to day 7 and every other day thereafter. ECFC-derived colonies appeared between day 4 and day 7 of culture with s typical endothelial cobblestone pattern. Individual colonies were isolated and expanded and allowed to grow to 80% to 90% confluency before first passage. ECFCs were used between P3 and P5 for all experiments.
HECFCs, HCAECs, HMVECs and THP-1 monocytes were cultured in their respective growth medium as described in Example 1. For cell bead-binding assay, 6×10^5 HECFCs, HCAECs, HMVECs or THP-1 monocytes in 2 mL of their respective culture medium were added to an ultra-low attachment 35-mm petri dish (Corning Incorporated) followed by resin beads (Lam et al. (1991) Nature 354:82). […]

HCAECs [1] = test: on-bead whole cell binding assay, HCAECs; type: cell-based, human; settings: 2 hours incubation
Excerpt: Human coronary artery endothelial cells (HCAECs) were purchased from ATCC. Human cardiac microvascular endothelial cells (HMVECs) were purchased from Lonza. THP-1 monocytes were obtained from Dr. Pamela Lein (University of California, Davis). The myeloid leukemia K562 cells that have been transfected with human integrin αvβ3 gene (αvβ3-K562 cells) were provided by Dr. Yoshikazu Takada and the K562 cells transfected with human integrin αIIbβ3 gene (αIIb3-K562 cells) were provided Dr. Jennifer Cochran (Stanford University)
HECFCs, HCAECs, HMVECs and THP-1 monocytes were cultured in their respective growth medium as described in Example 1. For cell bead-binding assay, 6×10^5 HECFCs, HCAECs, HMVECs or THP-1 monocytes in 2 mL of their respective culture medium were added to an ultra-low attachment 35-mm petri dish (Corning Incorporated) followed by resin beads (Lam et al. (1991) Nature 354:82). The dishes were incubated in a shaking incubator at 37° C., 5% CO2 for various time points at 40 rpm. For platelet bead-binding assay, the platelets isolated as described in Example 1 were added to an ultra-low attachment 35-mm petri dish and incubated with the resin beads in the shaking incubator as described for the cell-bead binding assy. Phase contrast images were taken at different time points using an Olympus IX81 microscope.
Three integrin-targeting ligands—LXY30 (α3β1), LLP2A (α4β1) and LXW7 (αvβ3)—were tested for their binding activities to EPCs and ECs. […] LXY30 only bound to ECs, not to EPCs. LLP2A only bound to EPCs, not to ECs. LXW7 bound well to both EPCs and ECs.

THP-1 monocytes [2] = test: flow cytometry ligand-cell binding, THP-1 monocytes; settings: biotinylated ligand 1 μM
Procedure: (§1) FIG. 10 presents flow cytometry data from an assay of binding affinity of LXW7 and GRGD (SEQ ID NO: 1) to different cell types. Tests included EPCs/ECs from different sources, including HECFCs (A), HCAECs (B), HMVECs (C), and THP-1 monocytes (D), Platelets (E), as well as K562 cells engineered to highly express αvβ3 (αvβ3-K562, F), and αIIbβ3 (αIIbβ3-K562, G). Cells were incubated with the LXW7-bio, GRGD-bio (SEQ ID NO: 1), or D-Biotin peptide and subsequently incubated with streptavidin-phycoerythrin. Flow cytometry analysis was performed to determine the binding affinity of the ligands. Samples treated with D-biotin were used as negative controls.
(§2) LXW7-bio (1 μM) was incubated with 3×10^5 HECFCs, HCAECs, HMVECs, αvβ3-K562 and αIIbβ3-K562 cells and THP-1 monocytes and 1×10^8 platelets in binding buffer (HEPES containing 10% FBS) on ice for 30 minutes. The samples were washed three times with DPBS containing 1% FBS and incubated with 2 μg/ml of streptavidin-phycoerythrin on ice for 30 minutes and then washed with DPBS. Samples were analyzed on a BD Fortessa LSR Cell Analyzer and further data analysis and gating were performed using FlowJo software (Treestar, Inc.).

platelets [3] = test: flow cytometry ligand-cell binding, platelets; settings: biotinylated ligand 1 μM
Procedure: as §1, §2

integrin αvβ3 = molecular target: T1, integrin αvβ3 (Homo sapiens, UniProt P05106+P06756); test: flow cytometry ligand-cell binding, αvβ3-K562 cells; settings: K562 cells highly expressing integrin αvβ3
T1 construct: expressed in transfected cells; host or cells: K562 myeloid leukemia cells (αvβ3-K562), provided by Dr. Yoshikazu Takada
T1 sequence (P06756 31-889 limits assumed): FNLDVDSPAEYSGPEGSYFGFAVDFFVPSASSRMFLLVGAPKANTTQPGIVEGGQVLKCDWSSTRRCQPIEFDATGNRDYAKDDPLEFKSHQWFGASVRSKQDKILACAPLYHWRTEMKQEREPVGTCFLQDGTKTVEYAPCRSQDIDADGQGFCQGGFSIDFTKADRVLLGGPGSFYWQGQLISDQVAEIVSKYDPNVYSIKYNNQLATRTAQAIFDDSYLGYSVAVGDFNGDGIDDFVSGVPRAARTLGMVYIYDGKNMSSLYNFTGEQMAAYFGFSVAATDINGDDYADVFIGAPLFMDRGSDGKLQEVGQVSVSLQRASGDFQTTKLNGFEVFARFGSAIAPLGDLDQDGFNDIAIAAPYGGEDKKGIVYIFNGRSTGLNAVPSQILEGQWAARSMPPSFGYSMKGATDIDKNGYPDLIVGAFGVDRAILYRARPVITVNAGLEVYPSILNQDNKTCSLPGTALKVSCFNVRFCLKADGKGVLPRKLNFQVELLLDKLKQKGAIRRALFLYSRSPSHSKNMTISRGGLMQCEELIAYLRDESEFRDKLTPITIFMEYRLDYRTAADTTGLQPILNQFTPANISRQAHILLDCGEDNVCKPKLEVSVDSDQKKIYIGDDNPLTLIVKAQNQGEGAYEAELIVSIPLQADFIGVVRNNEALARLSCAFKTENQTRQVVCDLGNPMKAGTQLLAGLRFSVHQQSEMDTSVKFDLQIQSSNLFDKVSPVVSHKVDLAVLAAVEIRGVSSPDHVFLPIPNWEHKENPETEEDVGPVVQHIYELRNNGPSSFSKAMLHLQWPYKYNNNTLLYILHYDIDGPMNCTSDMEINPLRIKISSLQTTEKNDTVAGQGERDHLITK
T1 sequence (P06756 891-1048 partner limits assumed): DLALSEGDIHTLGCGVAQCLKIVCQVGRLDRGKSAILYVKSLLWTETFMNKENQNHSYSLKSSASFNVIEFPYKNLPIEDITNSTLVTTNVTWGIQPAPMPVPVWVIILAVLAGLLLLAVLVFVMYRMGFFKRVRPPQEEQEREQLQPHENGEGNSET
T1 sequence (P05106 27-788): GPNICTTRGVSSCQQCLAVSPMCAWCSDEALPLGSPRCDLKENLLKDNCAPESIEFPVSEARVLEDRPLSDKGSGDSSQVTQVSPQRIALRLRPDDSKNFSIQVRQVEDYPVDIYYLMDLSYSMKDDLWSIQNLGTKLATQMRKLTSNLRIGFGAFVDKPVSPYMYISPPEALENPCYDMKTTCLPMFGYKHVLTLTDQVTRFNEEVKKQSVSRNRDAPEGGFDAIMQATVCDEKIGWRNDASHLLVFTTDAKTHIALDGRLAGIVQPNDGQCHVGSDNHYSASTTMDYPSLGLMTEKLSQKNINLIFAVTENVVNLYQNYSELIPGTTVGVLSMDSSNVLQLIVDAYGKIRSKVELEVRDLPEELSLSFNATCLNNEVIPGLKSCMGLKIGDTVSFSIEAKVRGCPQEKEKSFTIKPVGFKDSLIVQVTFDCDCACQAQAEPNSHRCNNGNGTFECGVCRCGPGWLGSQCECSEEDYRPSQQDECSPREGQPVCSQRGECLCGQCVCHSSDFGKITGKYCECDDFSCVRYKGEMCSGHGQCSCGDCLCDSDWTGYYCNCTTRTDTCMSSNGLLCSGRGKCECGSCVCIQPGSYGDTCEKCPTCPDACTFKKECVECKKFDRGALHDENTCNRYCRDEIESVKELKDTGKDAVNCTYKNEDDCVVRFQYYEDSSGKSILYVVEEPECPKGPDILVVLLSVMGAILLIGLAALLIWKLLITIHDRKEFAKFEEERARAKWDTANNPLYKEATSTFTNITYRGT
Procedure: as §1
(§3) Human coronary artery endothelial cells (HCAECs) were purchased from ATCC. Human cardiac microvascular endothelial cells (HMVECs) were purchased from Lonza. THP-1 monocytes were obtained from Dr. Pamela Lein (University of California, Davis). […]
as §2, with “The samples were washed three times with DPBS containing 1% FBS and incubated with 2 μg/ml of streptavidin-phycoerythrin on ice for 30 minutes and then washed with DPBS.” left out

integrin αIIbβ3 = molecular target: T2, integrin αIIbβ3 (Homo sapiens, UniProt P05106+P08514); test: flow cytometry ligand-cell binding, αIIbβ3-K562 cells; settings: K562 cells highly expressing αIIbβ3
T2 construct: expressed in transfected cells; host or cells: K562 myeloid leukemia cells (αIIbβ3-K562), provided by Dr. Jennifer Cochran (Stanford University)
Procedure: as §1, §3
as §2, with “The samples were washed three times with DPBS containing 1% FBS and incubated with 2 μg/ml of streptavidin-phycoerythrin on ice for 30 minutes and then washed with DPBS.” left out

HCAECs [4] = test: attachment assay on ligand treated culture surfaces, HCAECs; type: cell-based, human; settings: avidin + biotinylated ligand 2 μM; 10 minutes
Excerpt: Ligands LXW7, LXY30, and LLP2A were synthesized as in U.S. Pat. No. 9,073,974. Biotinylated LXW7 (LXW7-bio) and biotinylated GRGD (GRGD-bio) (SEQ ID NO: 1) were synthesized using established solid phase peptide synthesis protocols (Xiao et al. (2010) Mol Cancer Therapeutics 9:2714). Peptide-bio was designed to have biotin attached to the side chain of Lys, with two hydrophilic linkers between peptide and Lys (biotin). To modify culture surface with ligands, target culture wells in a 24-well plate were coated with 500 μL of 20 μg/mL Avidin (Thermo Fisher Scientific), and incubated for 1 hour at 37° C. Avidin coated wells were rinsed three times with DPBS and were treated with 500 μL molar equivalents (2 μM) of D-biotin (Thermo Fisher Scientific), LXW7-bio, or GRGD-bio (SEQ ID NO: 1). After 1 hour, the wells were washed three times with DPBS and blocked with 1% bovine serum albumin (BSA; Thermo Fisher Scientific) for 1 hour. After the wells were rinsed three times with DPBS, for cell attachment assay, 5×10^4 HCAECs and THP-1 monocytes suspended in the respective maintenance medium were added to the wells and incubated for 10 minutes or 16 hours at 37° C., 5% CO2, respectively. After each time point the wells were washed three times with DPBS, and the adhered cells were fixed in 10% formalin (Azer Scientific) for 20 minutes. For platelets attachment assay, the PRP was centrifuged, and the platelet pellet was resuspended in 1% BSA with 2 mM CaCl2 and 1 mM MgCl2 to achieve a final concentration of 1×10^8 platelets/mL, added to the wells at a density of 5×10^7 platelets/cm^2, and incubated for 16 hours at 37° C., 5% CO2. The wells were washed three times with DPBS, and the adhered cells were fixed in 10% formalin for 20 min. The HCAECs wells were washed with DPBS again and blocked for 1 hour with 1% BSA. An additional wash was performed, and the plate was incubated overnight with mouse anti-PECAM-1 antibody (1:100; Abcam) in 1% BSA at 4° C. […] Five images were randomly taken from each sample and quantification of images was performed using the Image J software (NIH).

THP-1 monocytes [5] = test: attachment assay on ligand treated culture surfaces, THP-1 monocytes; type: cell-based; settings: 16 hours
Excerpt: (§4) Ligands LXW7, LXY30, and LLP2A were synthesized as in U.S. Pat. No. 9,073,974. Biotinylated LXW7 (LXW7-bio) and biotinylated GRGD (GRGD-bio) (SEQ ID NO: 1) were synthesized using established solid phase peptide synthesis protocols (Xiao et al. (2010) Mol Cancer Therapeutics 9:2714). Peptide-bio was designed to have biotin attached to the side chain of Lys, with two hydrophilic linkers between peptide and Lys (biotin). To modify culture surface with ligands, target culture wells in a 24-well plate were coated with 500 μL of 20 μg/mL Avidin (Thermo Fisher Scientific), and incubated for 1 hour at 37° C. Avidin coated wells were rinsed three times with DPBS and were treated with 500 μL molar equivalents (2 μM) of D-biotin (Thermo Fisher Scientific), LXW7-bio, or GRGD-bio (SEQ ID NO: 1). After 1 hour, the wells were washed three times with DPBS and blocked with 1% bovine serum albumin (BSA; Thermo Fisher Scientific) for 1 hour. After the wells were rinsed three times with DPBS, for cell attachment assay, 5×10^4 HCAECs and THP-1 monocytes suspended in the respective maintenance medium were added to the wells and incubated for 10 minutes or 16 hours at 37° C., 5% CO2, respectively. […] Five images were randomly taken from each sample and quantification of images was performed using the Image J software (NIH).

platelets [6] = test: platelets attachment assay on ligand treated culture surfaces; type: cell-based; settings: 16 hours
Excerpt: as §4

Substance	binding of HECFCs to ligand-displaying resin beads (HECFCs)	binding of HCAECs to ligand-displaying resin beads (HCAECs [1])	binding to THP-1 monocytes by flow cytometry (THP-1 monocytes [2])	binding affinity with platelets by flow cytometry (platelets [3])	binding affinity to αvβ3-K562 cells by flow cytometry (integrin αvβ3)	binding to αIIbβ3-K562 cells by flow cytometry (integrin αIIbβ3)	attachment of HCAECs on ligand treated surface (HCAECs [4])	THP-1 monocyte attachment on ligand treated surface (THP-1 monocytes [5])	platelet adhesion on ligand treated surface (platelets [6])
LXY30: integrin-targeting ligand (α3β1), synthesized as in U.S. Pat. No. 9,073,974 (CDGFGPNCR; not fully specified; also: cyclised, D-residues and non-natural residues, places not given here) [reference compound]	not to HECFCs or to THP-1 monocytes	bound only to HCAECs							
GRGD [reference compound]			did not bind to THP-1 monocytes	strong binding to platelets	bound well	very strong binding	bound to both LXW7 and GRGD	did not support THP-1 monocyte attachment	significantly higher number of platelets to attach
